For series [1], the target named is T1, Oatp2 (Solute carrier organic anion transporter family member 1A4) (Rattus norvegicus, UniProt O35913).
T1 sequence (O35913 whole entry): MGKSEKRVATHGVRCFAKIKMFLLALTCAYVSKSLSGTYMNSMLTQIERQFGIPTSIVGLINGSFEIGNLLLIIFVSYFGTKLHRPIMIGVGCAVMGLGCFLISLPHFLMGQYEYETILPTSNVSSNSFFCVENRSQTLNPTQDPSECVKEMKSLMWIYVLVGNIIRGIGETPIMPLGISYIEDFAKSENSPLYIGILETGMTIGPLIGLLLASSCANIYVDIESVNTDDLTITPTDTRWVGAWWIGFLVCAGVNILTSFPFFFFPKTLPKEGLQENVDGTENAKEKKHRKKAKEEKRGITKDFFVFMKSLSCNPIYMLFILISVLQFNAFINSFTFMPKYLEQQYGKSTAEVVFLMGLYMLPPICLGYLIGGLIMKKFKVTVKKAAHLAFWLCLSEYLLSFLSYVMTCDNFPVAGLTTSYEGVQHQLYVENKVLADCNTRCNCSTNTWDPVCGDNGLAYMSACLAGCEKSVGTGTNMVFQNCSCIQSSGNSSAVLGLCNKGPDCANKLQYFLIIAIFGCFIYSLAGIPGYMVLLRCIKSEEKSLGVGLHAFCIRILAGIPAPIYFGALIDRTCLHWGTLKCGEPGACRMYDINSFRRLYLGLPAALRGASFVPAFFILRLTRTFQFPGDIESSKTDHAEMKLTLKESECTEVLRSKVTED
As to the kind of experiment: TP_TRANSPORTER: inhibition of Digoxin uptake (Digoxin: 0.05 uM, Corticosterone: 100 uM) in Oatp2-expressing LLC-PK1 cells. It counts as functional, cell-based. Set-up: scale not given: the % may be the effect or the level left. The settings on record: pig, probe Digoxin, read-out: Activity.

Series [2] concerns the target T2, Oatp1 (Solute carrier organic anion transporter family member 1A1) (Rattus norvegicus, UniProt P46720).
T2 sequence (P46720 whole entry): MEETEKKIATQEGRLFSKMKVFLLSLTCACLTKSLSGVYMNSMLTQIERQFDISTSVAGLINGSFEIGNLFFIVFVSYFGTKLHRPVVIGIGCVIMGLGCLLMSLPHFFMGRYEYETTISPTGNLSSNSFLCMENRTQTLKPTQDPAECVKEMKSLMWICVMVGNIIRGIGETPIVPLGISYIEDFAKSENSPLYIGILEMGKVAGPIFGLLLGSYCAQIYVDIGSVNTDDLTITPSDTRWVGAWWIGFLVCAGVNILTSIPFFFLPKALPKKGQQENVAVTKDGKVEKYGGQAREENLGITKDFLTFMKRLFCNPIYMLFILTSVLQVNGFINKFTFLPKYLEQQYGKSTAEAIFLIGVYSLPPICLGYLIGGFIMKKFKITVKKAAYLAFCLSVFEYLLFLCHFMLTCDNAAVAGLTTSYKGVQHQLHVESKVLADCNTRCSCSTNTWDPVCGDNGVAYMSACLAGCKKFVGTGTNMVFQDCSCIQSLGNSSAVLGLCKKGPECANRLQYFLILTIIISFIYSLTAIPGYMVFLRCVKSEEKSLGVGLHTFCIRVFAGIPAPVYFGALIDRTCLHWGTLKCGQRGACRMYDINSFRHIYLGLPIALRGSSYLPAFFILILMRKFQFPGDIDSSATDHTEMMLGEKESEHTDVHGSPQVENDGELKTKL
Description: TP_TRANSPORTER: inhibition of E217betaG uptake (E217betaG: 0.1 uM, Verapamil: 1000 uM) in Oatp1-expressing LLC-PK1 cells. The following applies: pig, probe E217betaG, read-out: Activity. Set-up: scale not given: the % may be the effect or the level left. The class given is functional, cell-based.

For series [3], the target named is T1, Oatp2 (Solute carrier organic anion transporter family member 1A4). As to the kind of experiment: TP_TRANSPORTER: inhibition of Digoxin uptake (Digoxin: 0.05 uM, Verapamil: 1000 uM) in Oatp2-expressing LLC-PK1 cells. The settings on record: pig, probe Digoxin, read-out: Activity. The class given is functional, cell-based. On the set-up: scale not given: the % may be the effect or the level left.

The target of series [4] is T3, Solute carrier organic anion transporter family member 1A4 (Rattus norvegicus, UniProt O35913).
T3 sequence (O35913 whole entry): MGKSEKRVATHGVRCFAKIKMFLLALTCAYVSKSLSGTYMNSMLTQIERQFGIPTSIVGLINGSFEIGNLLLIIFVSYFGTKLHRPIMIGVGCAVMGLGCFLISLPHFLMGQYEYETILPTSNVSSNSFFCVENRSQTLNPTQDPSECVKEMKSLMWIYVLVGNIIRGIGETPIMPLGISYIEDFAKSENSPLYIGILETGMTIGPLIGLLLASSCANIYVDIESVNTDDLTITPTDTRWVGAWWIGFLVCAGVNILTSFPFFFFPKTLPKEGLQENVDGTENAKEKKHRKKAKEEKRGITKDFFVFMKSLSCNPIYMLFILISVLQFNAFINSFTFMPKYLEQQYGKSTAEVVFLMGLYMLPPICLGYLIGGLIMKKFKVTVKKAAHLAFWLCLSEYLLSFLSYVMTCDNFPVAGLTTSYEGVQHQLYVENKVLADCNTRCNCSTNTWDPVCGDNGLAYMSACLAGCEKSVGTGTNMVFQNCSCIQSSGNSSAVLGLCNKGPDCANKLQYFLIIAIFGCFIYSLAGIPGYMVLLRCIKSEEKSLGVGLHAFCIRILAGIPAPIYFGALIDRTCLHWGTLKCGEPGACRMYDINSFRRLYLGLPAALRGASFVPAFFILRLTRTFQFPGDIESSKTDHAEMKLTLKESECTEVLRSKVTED
As to the kind of experiment: TP_TRANSPORTER: inhibition of Digoxin uptake in Oatp2-expressing LLC-PK1 cells. The class given is functional, cell-based.

For series [5], the target named is T4, Solute carrier organic anion transporter family member 1A1 (Rattus norvegicus, UniProt P46720).
T4 sequence (P46720 whole entry): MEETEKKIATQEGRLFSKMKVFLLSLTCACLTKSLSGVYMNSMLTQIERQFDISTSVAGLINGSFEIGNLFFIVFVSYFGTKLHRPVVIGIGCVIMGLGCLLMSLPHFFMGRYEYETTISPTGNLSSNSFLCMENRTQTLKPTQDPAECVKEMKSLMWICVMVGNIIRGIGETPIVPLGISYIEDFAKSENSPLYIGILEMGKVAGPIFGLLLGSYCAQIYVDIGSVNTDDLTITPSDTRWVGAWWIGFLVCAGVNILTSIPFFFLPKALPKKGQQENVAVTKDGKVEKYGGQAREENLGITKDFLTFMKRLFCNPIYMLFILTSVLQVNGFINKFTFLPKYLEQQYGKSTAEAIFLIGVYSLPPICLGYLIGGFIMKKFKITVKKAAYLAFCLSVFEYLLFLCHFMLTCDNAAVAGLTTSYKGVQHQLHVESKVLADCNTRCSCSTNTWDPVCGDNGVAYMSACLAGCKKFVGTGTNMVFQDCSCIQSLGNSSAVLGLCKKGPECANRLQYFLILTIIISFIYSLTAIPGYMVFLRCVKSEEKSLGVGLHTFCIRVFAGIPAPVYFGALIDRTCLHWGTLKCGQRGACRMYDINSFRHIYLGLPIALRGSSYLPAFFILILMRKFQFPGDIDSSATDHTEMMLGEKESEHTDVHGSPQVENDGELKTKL
As to the kind of experiment: TP_TRANSPORTER: inhibition of E217betaG uptake in Oatp1-expressing LLC-PK1 cells. It counts as functional, cell-based.

In series [6] the target is T1, Oatp2 (Solute carrier organic anion transporter family member 1A4). As to the kind of experiment: in vitro. The settings on record: pig, Oatp2-expressing LLC-PK1 cells, probe Digoxin.
The target of series [7] is T2, Oatp1 (Solute carrier organic anion transporter family member 1A1). Description: in vitro. The settings on record: pig, Oatp1-expressing LLC-PK1 cells, probe E217betaG.
Substrate in series [8]: C[C@H]1O[C@@H](O[C@H]2[C@@H](O)C[C@H](O[C@H]3[C@@H](O)C[C@H](O[C@H]4CC[C@@]5(C)[C@H](CC[C@@H]6[C@@H]5C[C@@H](O)[C@]5(C)[C@@H](C7=CC(=O)OC7)CC[C@]65O)C4)O[C@@H]3C)O[C@@H]2C)C[C@H](O)[C@@H]1O
Description: TP_TRANSPORTER: uptake in Oatp2-expressing LLC-PK1 cells. It counts as functional, cell-based.

Substrate in series [9]: C[C@]12CC[C@@H]3c4ccc(O)cc4CC[C@H]3[C@@H]1CC[C@@H]2O[C@@H]1O[C@H](C(=O)O)[C@@H](O)[C@H](O)[C@H]1O
Description: TP_TRANSPORTER: uptake in Oatp1-expressing LLC-PK1 cells. It counts as functional, cell-based.

Consider `C[C@]12C[C@H](O)[C@H]3[C@@H](CCC4=CC(=O)CC[C@@]43C)[C@@H]1CC[C@@H]2C(=O)CO` [CORTICOSTERONE], for which the activity at 100 µM in [1] stood at 32.9%.
As for `COc1ccc(CCN(C)CCCC(C#N)(c2ccc(OC)c(OC)c2)C(C)C)cc1OC` (stereo unspecified), the activity at 1000 µM in series [2] is 3.93%; in [3], 4.12%.
By Ki is commonly meant the dissociation constant of the complex between target and ligand, obtained from inhibition or displacement. In the case of `CO[C@H]1/C=C/O[C@@]2(C)Oc3c(C)c(O)c4c(O)c(c(/C=N/N5CCN(C)CC5)c(O)c4c3C2=O)NC(=O)/C(C)=C\C=C\[C@H](C)[C@H](O)[C@@H](C)[C@@H](O)[C@@H](C)[C@H](OC(C)=O)[C@@H]1C` [RIFAMPIN], the Ki in [4] was 1.46 µM; in series [5], 18.2 µM.
The like results for `CC(C)Cc1ccc(C(C)C(=O)O)cc1` (stereo unspecified) [IBUPROFEN] were, in that order, 2430 µM and 126 µM.
For the molecule `COc1ccc2cc([C@H](C)C(=O)O)ccc2c1` [NAPROXEN], the activity at 1000 µM in series [6] was 52.2%; in [7], 19.9%.

B1: Solute carrier organic anion transporter family member 1A4 (Rattus norvegicus) (protein)
chain: MGKSEKRVATHGVRCFAKIKMFLLALTCAYVSKSLSGTYMNSMLTQIERQFGIPTSIVGLINGSFEIGNLLLIIFVSYFGTKLHRPIMIGVGCAVMGLGCFLISLPHFLMGQYEYETILPTSNVSSNSFFCVENRSQTLNPTQDPSECVKEMKSLMWIYVLVGNIIRGIGETPIMPLGISYIEDFAKSENSPLYIGILETGMTIGPLIGLLLASSCANIYVDIESVNTDDLTITPTDTRWVGAWWIGFLVCAGVNILTSFPFFFFPKTLPKEGLQENVDGTENAKEKKHRKKAKEEKRGITKDFFVFMKSLSCNPIYMLFILISVLQFNAFINSFTFMPKYLEQQYGKSTAEVVFLMGLYMLPPICLGYLIGGLIMKKFKVTVKKAAHLAFWLCLSEYLLSFLSYVMTCDNFPVAGLTTSYEGVQHQLYVENKVLADCNTRCNCSTNTWDPVCGDNGLAYMSACLAGCEKSVGTGTNMVFQNCSCIQSSGNSSAVLGLCNKGPDCANKLQYFLIIAIFGCFIYSLAGIPGYMVLLRCIKSEEKSLGVGLHAFCIRILAGIPAPIYFGALIDRTCLHWGTLKCGEPGACRMYDINSFRRLYLGLPAALRGASFVPAFFILRLTRTFQFPGDIESSKTDHAEMKLTLKESECTEVLRSKVTED
The term Km denotes the substrate concentration at which the rate is half of its maximum. In the case of B1, the Michaelis constant (Km) in [8] was 0.279 µM.

B2: Solute carrier organic anion transporter family member 1A1 (Rattus norvegicus) (protein)
chain: MEETEKKIATQEGRLFSKMKVFLLSLTCACLTKSLSGVYMNSMLTQIERQFDISTSVAGLINGSFEIGNLFFIVFVSYFGTKLHRPVVIGIGCVIMGLGCLLMSLPHFFMGRYEYETTISPTGNLSSNSFLCMENRTQTLKPTQDPAECVKEMKSLMWICVMVGNIIRGIGETPIVPLGISYIEDFAKSENSPLYIGILEMGKVAGPIFGLLLGSYCAQIYVDIGSVNTDDLTITPSDTRWVGAWWIGFLVCAGVNILTSIPFFFLPKALPKKGQQENVAVTKDGKVEKYGGQAREENLGITKDFLTFMKRLFCNPIYMLFILTSVLQVNGFINKFTFLPKYLEQQYGKSTAEAIFLIGVYSLPPICLGYLIGGFIMKKFKITVKKAAYLAFCLSVFEYLLFLCHFMLTCDNAAVAGLTTSYKGVQHQLHVESKVLADCNTRCSCSTNTWDPVCGDNGVAYMSACLAGCKKFVGTGTNMVFQDCSCIQSLGNSSAVLGLCKKGPECANRLQYFLILTIIISFIYSLTAIPGYMVFLRCVKSEEKSLGVGLHTFCIRVFAGIPAPVYFGALIDRTCLHWGTLKCGQRGACRMYDINSFRHIYLGLPIALRGSSYLPAFFILILMRKFQFPGDIDSSATDHTEMMLGEKESEHTDVHGSPQVENDGELKTKL
As for B2, the Km in [9] was 11.2 µM.
